Assay results taken from patent US11692004B2, “Substituted pyrazole compound, preparation method therefor, pharmaceutical composition and medical use thereof” (JIANGSU VANGUARD PHARMACEUTICAL CO., LTD., priority 2018, dated 2023).
≈ marks a conversion by molar mass, not a printed value.

tested on: not listed separately; test: Stability studies (high humidity, illumination, high temperature, seven days); type: physicochemical; settings: 25° C. ± 2° C., 60% ± 5 RH, 4500 ± 500 LX
Experimental: The stability of samples from some embodiments were examined under high humidity (25° C.±2° C., 90%±5RH), illumination (25° C.±2° C., 60%±5RH, 4500±500LX), high temperature (60° C.±2° C., 60%±5RH), which were stored in the stability incubator for seven days, for the changes of related substances and contents, as shown in Table 2.

Compound | Content Drop, Illumination [%] | Stability, Illumination: changes of related substances and contents
CC1=NN(c2ccccc2)C(=O)C1 [Edaravone, edaravone, reference compound] | 4 | dropped significantly

tested on: not listed separately; test: Solubility test in distilled water; type: physicochemical; settings: thermodynamic from solid, 25° C.
Experimental: Test method: the dry compound was slowly dissolved into about 0.5 ml distilled water in a 5 ml EP tube until saturation (turbid after ultra-sonic vibration at 25° C.). The solution was filtered and moved to another clean 5 ml EP tube (pre-weighed) and the tube was weighed again to calculate the solution weight. The solution was freeze dried. The remaining solute was weighed to calculate the solvent weight, and then the compound solubility in water was determined.

Compound | solubility [mg/mL]
Cc1cc(OC2O[C@H](CO)[C@@H](O)[C@H](O)[C@H]2O)n(-c2ccccc2)n1 (stereo partly drawn) [Compound 33, 1-phenyl-3-methyl-5-O-D-glucoside-pyrazole] | 10.1 (≈ 30 mM)
Cc1cc(OC2O[C@H](CO)[C@@H](O)[C@H](O)[C@@H]2O)n(-c2ccccc2)n1 (stereo partly drawn) [Compound 34, 1-phenyl-3-methyl-5-O-D-mannoside-pyrazole] | 12.3 (≈ 36.6 mM)
Cc1cc(OC2O[C@H](CO)[C@H](O)[C@H](O)[C@H]2O)n(-c2ccccc2)n1 (stereo partly drawn) [Compound 35, 1-phenyl-3-methyl-5-O-D-galactoside-pyrazole] | 18 (≈ 53.5 mM)
Cc1cc(OC2C[C@@H](O)[C@H](O)[C@@H](CO)O2)n(-c2ccccc2)n1 (stereo partly drawn) [Compound 36, 1-phenyl-3-methyl-5-O-D-(2-deoxy)glucoside-pyrazole] | 4.2 (≈ 13.1 mM)
CC1=NN(c2ccccc2)C(=O)C1 [Edaravone, edaravone, reference compound] | < 1

tested on: not listed separately; test: Cytotoxic test (MTT); type: cell-based; settings: rat, PC12 cells, 48 h incubation
Experimental: (§1) After resuscitating, the PC12 cells were cultured in RPMI-1640 containing 10% horse serum and 5% Fetus Bovine Serum (FBS) under 5% CO2 at 37° C. for two weeks. The medium was changed every other day. The compounds were diluted into solutions of 12.5, 25, 50, 100, 200, 300 μM with culture medium (except examples 33-45 with additional solutions of 400 μM and 500 μM). The PC12 cells were seeded into a 96-well plate at a density of 1.2×10^4 cells/well and cultured in a 37° C., 5% CO2 incubator for 24 hours. Remove the medium, the cells were added with the compound solutions of different concentrations as test solutions for another 48 h incubation in a 37° C., 5% CO2 incubator.
(§2) After the incubation, the wells were added with 20 μL 5 mg/mL MTT and incubated for 4 hours at 37° C. Carefully removed the medium and added 150 μL DMSO. The plates were placed on an enzyme-labeled instrument and vibrated for 5 min. The absorbance Atest solution were obtained at 490 nm with the Ablank of the well without cells and the Acontrol of the well with untreated cells. The survival rates of the cells in every well were calculated by the formula as Survival rate (%)=(Atest solution−Ablank)/(Acontrol−Ablank)*100%

Compound | IC50 at 48 h [µM]
Cc1cc(OC2O[C@H](CO)[C@@H](O)[C@H](O)[C@H]2O)n(-c2ccccc2)n1 (stereo partly drawn) [Compound 33, 1-phenyl-3-methyl-5-O-D-glucoside-pyrazole] | > 300
Cc1cc(OC2O[C@H](CO)[C@@H](O)[C@H](O)[C@@H]2O)n(-c2ccccc2)n1 (stereo partly drawn) [Compound 34, 1-phenyl-3-methyl-5-O-D-mannoside-pyrazole] | > 300
Cc1cc(OC2O[C@H](CO)[C@H](O)[C@H](O)[C@H]2O)n(-c2ccccc2)n1 (stereo partly drawn) [Compound 35, 1-phenyl-3-methyl-5-O-D-galactoside-pyrazole] | > 300
Cc1cc(OC2C[C@@H](O)[C@H](O)[C@@H](CO)O2)n(-c2ccccc2)n1 (stereo partly drawn) [Compound 36, 1-phenyl-3-methyl-5-O-D-(2-deoxy)glucoside-pyrazole] | > 300

tested on: PC12 cells; test: In-vitro neuroprotection-I (H2O2 injury, MTT); type: cell-based; settings: Rattus norvegicus, PC-12, 48 h compound, then 200 μM H2O2 24 h, MTT survival rate
Experimental: All samples were made into 60 mM stock solution by DMSO, which were 200 times diluted to 300 μM by medium. And the final concentration was further diluted into different concentrations by media.
Control: Normal cell-plating and same cell medium as other group. 24 hours later, the medium was discarded. Incubate the cell in new media for 24 hours. No compound and hydrogen peroxide treatment. Other steps were the same as the sample test as mentioned below did.
Blank: no cell plating, cell medium, and other steps were the same as the sample test as mentioned below did.
as §1, with “(except that” for “(except”, “The PC 12” for “The PC12”, “of 8×10^3” for “of 1.2×10^4”, “hours. Removed” for “hours. Remove”, “incubator. After the incubation, apart from the blank and control groups, the wells (including 0 μM drug group) were added to the medium-prepared 200 μM H2O2, and continued for another 24 h incubation in a 37° C., 5% CO2 incubator.” for “incubator.”
as §2, with “rate” for “rates”, “well” for “well were calculated”, “survival” for “as Survival”, “solution−Ablank)/(Acontrol−Ablank)*100%.” for “solution−Ablank)/(Acontrol−Ablank)*100%”

Compound | EC50 [µM]
Cc1cc(OC2O[C@H](CO)[C@@H](O)[C@H](O)[C@H]2O)n(-c2ccccc2)n1 (stereo partly drawn) [Compound 33, 1-phenyl-3-methyl-5-O-D-glucoside-pyrazole] | 112
Cc1cc(OC2O[C@H](CO)[C@@H](O)[C@H](O)[C@@H]2O)n(-c2ccccc2)n1 (stereo partly drawn) [Compound 34, 1-phenyl-3-methyl-5-O-D-mannoside-pyrazole] | 120
Cc1cc(OC2O[C@H](CO)[C@H](O)[C@H](O)[C@H]2O)n(-c2ccccc2)n1 (stereo partly drawn) [Compound 35, 1-phenyl-3-methyl-5-O-D-galactoside-pyrazole] | 87.9
Cc1cc(OC2C[C@@H](O)[C@H](O)[C@@H](CO)O2)n(-c2ccccc2)n1 (stereo partly drawn) [Compound 36, 1-phenyl-3-methyl-5-O-D-(2-deoxy)glucoside-pyrazole] | 79.6
CC1=NN(c2ccccc2)C(=O)C1 [Edaravone, edaravone, reference compound] | 171

tested on: MCAO model (middle cerebral artery ischemia-reperfusion); test: In vivo drug efficacy test of MCAO model; settings: SD rats, MCAO 2 h then reperfusion, tail vein infusion 30 min, TTC staining, infarct area to whole brain area

Compound | Cerebral infarction area (%)
Cc1cc(OC2O[C@H](CO)[C@@H](O)[C@H](O)[C@H]2O)n(-c2ccccc2)n1 (stereo partly drawn) [Compound 33, 1-phenyl-3-methyl-5-O-D-glucoside-pyrazole] | 14.0
Cc1cc(OC2O[C@H](CO)[C@@H](O)[C@H](O)[C@@H]2O)n(-c2ccccc2)n1 (stereo partly drawn) [Compound 34, 1-phenyl-3-methyl-5-O-D-mannoside-pyrazole] | 14.5
Cc1cc(OC2O[C@H](CO)[C@H](O)[C@H](O)[C@H]2O)n(-c2ccccc2)n1 (stereo partly drawn) [Compound 35, 1-phenyl-3-methyl-5-O-D-galactoside-pyrazole] | 15.8
Cc1cc(OC2C[C@@H](O)[C@H](O)[C@@H](CO)O2)n(-c2ccccc2)n1 (stereo partly drawn) [Compound 36, 1-phenyl-3-methyl-5-O-D-(2-deoxy)glucoside-pyrazole] | 14.1
CC1=NN(c2ccccc2)C(=O)C1 [Edaravone, edaravone, reference compound] | 20.1

same assay, conditions: SD rats, MCAO 2 h then reperfusion, tail vein infusion 30 min, score at 24 h versus model control

Compound | Improvements of nerve function (%)
Cc1cc(OC2O[C@H](CO)[C@@H](O)[C@H](O)[C@H]2O)n(-c2ccccc2)n1 (stereo partly drawn) [Compound 33, 1-phenyl-3-methyl-5-O-D-glucoside-pyrazole] | 24.0
Cc1cc(OC2O[C@H](CO)[C@@H](O)[C@H](O)[C@@H]2O)n(-c2ccccc2)n1 (stereo partly drawn) [Compound 34, 1-phenyl-3-methyl-5-O-D-mannoside-pyrazole] | 21.1
Cc1cc(OC2O[C@H](CO)[C@H](O)[C@H](O)[C@H]2O)n(-c2ccccc2)n1 (stereo partly drawn) [Compound 35, 1-phenyl-3-methyl-5-O-D-galactoside-pyrazole] | 22.2
Cc1cc(OC2C[C@@H](O)[C@H](O)[C@@H](CO)O2)n(-c2ccccc2)n1 (stereo partly drawn) [Compound 36, 1-phenyl-3-methyl-5-O-D-(2-deoxy)glucoside-pyrazole] | 24.1
CC1=NN(c2ccccc2)C(=O)C1 [Edaravone, edaravone, reference compound] | 15.7

tested on: B6SJL-Tg (SOD1*G93A) mice; test: In vivo efficacy test of ALS model; parameters: key to Rotarod Time / PaGE: “+” indicates a significant difference compared with the solvent group, p < 0.05; settings: 86 μmol/kg i.p. once a day for 4 weeks
Experimental: B6SJL-Tg (SOD1*G93A) mice were intraperitoneally administered single-doses once a day for 4 consecutive weeks. The weight of the mice was determined before and after the administration every week. The motor function of the mice was determined by rota-rod and PaGE tests with the time points before and after 4-week administration. The mice plasma was collected and detected for SOD levels through ELISA. The Index Evaluation described below was used to evaluate the efficacy of the compounds of the examples in ALS model and to what extent the compounds of the examples improve the survival period and motor activity.
The animals were delivered to the SPF animal room and raised for more than one week. Five days before the test, the mice were accustomed to a round of tests per day. The mice were randomly divided into groups according to their body weights, 8 mice for each group. Among them, the solvent group was given with the same volume of solvent (physiological saline) every day.
The mice were administered with a volume of 10 ml/kg.
i.p once a day for 4 weeks.
Index evaluation time started from the beginning of the experiment to the death of the animals.
1) ALS onset time: For 2 consecutive observation days, the mice appeared limb, tremor and/or limb weakness at tail suspension were determined as the ALS onset. The determination of limb weakness: the mice were placed on the rota-rod device with a diameter of 3.5 cm. The speed is set to 15 rpm to record the longest fall latency divided by 420 s. The mice of less 420 s were determined as limb weakness.
2) Rota-rod Test: The mice were placed on the rota-rod device with a diameter of 3.5 cm. The speed is set to 12 rpm to record the longest fall latency divided by 180 s. The latency of more than 180 s was recorded as 180 s, and actual time was recorded when less than 180 s.
3) Paw Grip Endurance (PaGE) Test: The mice were placed on the traditional wire grid. The grid was gently shaken to cause the mice to tighten its grip on the wires then inverted, and time recording commenced. The time was recorded until the mouse lost its grip in hind limbs divided by 90 s. The time more than 90 s was recorded as 90 s, while the time less than 90 s was recorded by its actual time. The test was completed in triplicate with the highest score used for analysis.
5) Plasma SOD concentration: The blood was collected and mixed with EP tube containing heparin before and after administration at the 4th week, and then centrifuged at 1000 g for 10 min. The plasma was collected and stored in aliquots at −70° C. ELISA kit was used to detect plasma SOD levels.

Compound | Onset time(d) | Survival time [days] | Onset time [days]
Cc1cc(OC2O[C@H](CO)[C@@H](O)[C@H](O)[C@H]2O)n(-c2ccccc2)n1 (stereo partly drawn) [Compound 33, 1-phenyl-3-methyl-5-O-D-glucoside-pyrazole] | 118.25 ± 5.87* d | 149.88 ± 8.37 | 
CC1=NN(c2ccccc2)C(=O)C1 [Edaravone, edaravone, reference compound] |  | 147.00 ± 8.94 | 116.14 ± 7.82

same assay, conditions: 86 μmol/kg i.p. once a day for 4 weeks, ELISA

Compound | Plasma SOD concentration on day 28th(U/mL)
Cc1cc(OC2O[C@H](CO)[C@@H](O)[C@H](O)[C@H]2O)n(-c2ccccc2)n1 (stereo partly drawn) [Compound 33, 1-phenyl-3-methyl-5-O-D-glucoside-pyrazole] | 155.18 ± 15.37* U/mL
CC1=NN(c2ccccc2)C(=O)C1 [Edaravone, edaravone, reference compound] | 153.88 ± 9.91* U/mL

same assay, conditions: 86 μmol/kg i.p. once a day for 4 weeks, versus solvent group

Compound | PaGE | Rotarod Time
Cc1cc(OC2O[C@H](CO)[C@@H](O)[C@H](O)[C@H]2O)n(-c2ccccc2)n1 (stereo partly drawn) [Compound 33, 1-phenyl-3-methyl-5-O-D-glucoside-pyrazole] | + | +
CC1=NN(c2ccccc2)C(=O)C1 [Edaravone, edaravone, reference compound] | + | +

same assay, conditions: 28-day drug intervention

Compound | Fall latency in rota-rod test and PaGE test
Cc1cc(OC2O[C@H](CO)[C@@H](O)[C@H](O)[C@H]2O)n(-c2ccccc2)n1 (stereo partly drawn) [Compound 33, 1-phenyl-3-methyl-5-O-D-glucoside-pyrazole] | better than the marketed drug edaravone
